From ChEMBL document CHEMBL1201862, “PubChem BioAssay data set” (2004)
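Tested at 5 concentrations; 48 h exposure; 96-well plates; endpoints linearly interpolated, else capped at highest concentration. GI50 marks 50% less growth.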 The source made the active and inactive calls. No stated cut-off is given here; in the data, active = GI50 up to about 1.1 µM and inactive = higher.

Legend:
Test in all cases: DTP human tumour cell line panel, 48 h
OVCAR-5 = tested on: OVCAR-5
RPMI-8226 = tested on: RPMI-8226
Malme-3M = tested on: Malme-3M
ACHN = tested on: ACHN
SNB-75 = tested on: SNB-75
SW-620 = tested on: SW-620
SN12C = tested on: SN12C
A549 = tested on: A549
RXF 393 = tested on: RXF 393
MDA-MB-435 = tested on: MDA-MB-435
SNB-19 = tested on: SNB-19
M14 = tested on: M14
PC-3 = tested on: PC-3
MDA-N = tested on: MDA-N
UACC-257 = tested on: UACC-257
HOP-62 = tested on: HOP-62
SR = tested on: SR
SK-MEL-2 = tested on: SK-MEL-2
CAKI-1 = tested on: CAKI-1
U-251 = tested on: U-251

Structure (SMILES) | GI50 (OVCAR-5) | GI50 (RPMI-8226) | GI50 (Malme-3M) | GI50 (ACHN) | GI50 (SNB-75) | GI50 (SW-620) | GI50 (SN12C) | GI50 (A549) | GI50 (RXF 393) | GI50 (MDA-MB-435) | GI50 (SNB-19) | GI50 (M14) | GI50 (PC-3) | GI50 (MDA-N) | GI50 (UACC-257) | GI50 (HOP-62) | GI50 (SR) | GI50 (SK-MEL-2) | GI50 (CAKI-1) | GI50 (U-251)
CC(=O)Nc1ccc(S(=O)(=O)N=S(C)C)cc1 | > 100 µM (inactive) | > 100 µM (inactive) | > 100 µM (inactive) | > 100 µM (inactive) | > 100 µM (inactive) | > 100 µM (inactive) | > 100 µM (inactive) | > 100 µM (inactive) | > 100 µM (inactive) | > 100 µM (inactive) | > 100 µM (inactive) | > 100 µM (inactive) | > 100 µM (inactive) | > 100 µM (inactive) | > 100 µM (inactive) | > 100 µM (inactive) | > 100 µM (inactive) | > 100 µM (inactive) | > 100 µM (inactive) | > 100 µM (inactive)
Cc1ccc(N2CN3OC(=O)N(c4ccccc4)[C@@]3(c3ccccc3)C2)cc1 | > 100 µM (inactive) | 45.6 µM (inactive) | 34 µM (inactive) | 39.4 µM (inactive) | 36.6 µM (inactive) | 80 µM (inactive) | 42.2 µM (inactive) | 36.5 µM (inactive) | 25.1 µM (inactive) | 26.4 µM (inactive) | 92 µM (inactive) | 65.5 µM (inactive) | 34.2 µM (inactive) | 33.6 µM (inactive) | 26.6 µM (inactive) | 36.1 µM (inactive) | 16 µM (inactive) | 19.9 µM (inactive) | 33.3 µM (inactive) | 30.5 µM (inactive)
COc1nc(N)c(N=O)c(OCc2ccccc2)n1 | > 10 µM (inactive) | > 10 µM (inactive) | 3.12 µM (inactive) | 7.35 µM (inactive) | > 10 µM (inactive) | 1.61 µM (inactive) | 7.59 µM (inactive) | > 10 µM (inactive) | 5.15 µM (inactive) | 6.31 µM (inactive) | > 10 µM (inactive) | 4.84 µM (inactive) | > 10 µM (inactive) | 5.36 µM (inactive) | > 10 µM (inactive) | > 10 µM (inactive) | 4.84 µM (inactive) | > 10 µM (inactive) | 3.51 µM (inactive) | > 10 µM (inactive)
CC1=C(C(=O)NC2CCCCC2)CC(C(=O)NC2CCCCC2)=C(C)N1 | > 100 µM (inactive) | > 100 µM (inactive) | > 100 µM (inactive) | > 100 µM (inactive) | 13.7 µM (inactive) | > 100 µM (inactive) | > 100 µM (inactive) | > 100 µM (inactive) | > 100 µM (inactive) | > 100 µM (inactive) | > 100 µM (inactive) | > 100 µM (inactive) | 77.4 µM (inactive) | > 100 µM (inactive) | > 100 µM (inactive) | > 100 µM (inactive) | > 100 µM (inactive) | > 100 µM (inactive) | > 100 µM (inactive) | > 100 µM (inactive)
O=C1C(=O)c2c(oc(=O)c3ccccc23)-c2ccccc21 | > 25 µM (inactive) | 19.3 µM (inactive) | 8.93 µM (inactive) | > 25 µM (inactive) | 16.6 µM (inactive) | 22.2 µM (inactive) | 14.5 µM (inactive) | > 25 µM (inactive) | > 25 µM (inactive) | 6.75 µM (inactive) | > 25 µM (inactive) | > 25 µM (inactive) | > 25 µM (inactive) | 24.4 µM (inactive) | > 25 µM (inactive) | > 25 µM (inactive) | > 25 µM (inactive) | > 25 µM (inactive) | > 25 µM (inactive) | > 25 µM (inactive)
O=C(O)[C@@H]1[C@H](C(=O)O)[C@H](C(=O)O)C[C@@H]1C(=O)O | > 100 µM (inactive) | > 100 µM (inactive) | > 100 µM (inactive) | > 100 µM (inactive) | > 100 µM (inactive) | > 100 µM (inactive) | > 100 µM (inactive) | > 100 µM (inactive) | > 100 µM (inactive) | > 100 µM (inactive) | > 100 µM (inactive) | > 100 µM (inactive) | > 100 µM (inactive) | > 100 µM (inactive) | > 100 µM (inactive) | > 100 µM (inactive) | > 100 µM (inactive) | > 100 µM (inactive) | > 100 µM (inactive) | > 100 µM (inactive)
CCOC(=O)C(Cl)(NC(=O)c1c(F)c(F)c(F)c(F)c1F)C(F)(F)F (stereo not given) | > 100 µM (inactive) | > 100 µM (inactive) | > 100 µM (inactive) | > 100 µM (inactive) | > 100 µM (inactive) | > 100 µM (inactive) | > 100 µM (inactive) | > 100 µM (inactive) | > 100 µM (inactive) | > 100 µM (inactive) | > 100 µM (inactive) | > 100 µM (inactive) | > 100 µM (inactive) | > 100 µM (inactive) | > 100 µM (inactive) | > 100 µM (inactive) | 9.4 µM (inactive) | > 100 µM (inactive) | 20 µM (inactive) | > 100 µM (inactive)
CC(C)=CCC/C(C)=C/CC/C(C)=C/CC(CO)N(C)CC/C=C(\C)CCC=C(C)C (stereo not given) | 7.13 µM (inactive) | 3.09 µM (inactive) | 2.99 µM (inactive) | 11.6 µM (inactive) | 12 µM (inactive) | 3.62 µM (inactive) | 4.54 µM (inactive) | 4.93 µM (inactive) | 4.82 µM (inactive) | 3.93 µM (inactive) | 8.91 µM (inactive) | 1.79 µM (inactive) | 7.96 µM (inactive) | 3.43 µM (inactive) | 5.2 µM (inactive) | 4.32 µM (inactive) | 2.17 µM (inactive) | 14.3 µM (inactive) | 6.64 µM (inactive) | 3.56 µM (inactive)
c1ccc2[nH]c3[nH]c4[nH]c5ccccc5[nH]c4[nH]c3[nH]c2c1 | 44.5 µM (inactive) | > 100 µM (inactive) | > 100 µM (inactive) | > 100 µM (inactive) | 21 µM (inactive) | > 100 µM (inactive) | > 100 µM (inactive) | > 100 µM (inactive) | > 100 µM (inactive) | > 100 µM (inactive) | > 100 µM (inactive) | > 100 µM (inactive) | > 100 µM (inactive) | > 100 µM (inactive) | > 100 µM (inactive) | > 100 µM (inactive) | > 100 µM (inactive) | > 100 µM (inactive) | > 100 µM (inactive) | > 100 µM (inactive)
NC(=O)c1[nH]nc(C2OC(CO)C(O)C2O)c1O (stereo not given) | 183 µM (inactive) | 0.682 µM (active) | 368 µM (inactive) | 0.5 µM (active) | 101 µM (inactive) | 0.55 µM (active) | 3.18 µM (inactive) | 0.6 µM (active) | 8.99 µM (inactive) | 15.7 µM (inactive) | 2.6 µM (inactive) | 95.3 µM (inactive) | 3.02 µM (inactive) | 3.39 µM (inactive) | 966 µM (inactive) | 2.68 µM (inactive) | 0.5 µM (active) | 84.7 µM (inactive) | 0.689 µM (active) | 1.38 µM (inactive)
